Measurements: patent US20230413887A1, “2'-FUCOSYLLACTOSE FOR USE IN STIMULATING F. PRAUSNITZII ABUNDANCE” (FrieslandCampina Nederland B.V., priority 2020, published 2023)
Entries after “also recorded” stand apart in the source; their conditions may differ.

Columns and labels:
F. prausnitzii [1] = conditions: co-culture with Bifidobacterium longum subsp. infantis; cited from earlier work
F. prausnitzii [2] = conditions: rats; cited from earlier work
F. prausnitzii [3] = conditions: cited from earlier work
[4] = system: Faecalibacterium prausnitzii; assay: in vitro incubation of 2′-FL with fecal inoculum of adult and elderly subjects, 16S rRNA microbiota composition; assay type: cell-based, human; conditions: 2′-FL 10 mg/ml, 10% (v/v) fecal inoculum, samples 0-24 h, adults 25-50 yrs and 70-79 yrs
Procedure: A group of twelve randomly contacted adults—three men and three women aged 25-50 yrs and three men and three women aged 70-79 yrs—donated their fecal material for an in vitro study. Anoxically cryo-conserved fecal inoculum was defrosted and transferred to a 96% N2 and 4% H2 filled anaerobic chamber. Incubation of 2′-FL (10 mg/ml) was done with 10% (v/v) fecal inoculum in duplicate, while incubations without fecal inoculum and without carbohydrates served as controls using the standard ileal efflux medium. Samples were collected 0 h, 4 h, 10 h and 24 h after inoculation.
Three aliquots of 1 ml from each culture bottle were then distributed into 1.5 ml Eppendorf tubes. One of these aliquots was heated at 100° C. for 5 min to determine carbohydrates in the supernatant. Afterwards, all samples were centrifuged at 4° C. at 18600 relative centrifugal force (rcf) for 10 min. The supernatants from the other two tubes were pooled and stored at −20° C. for metabolite measurement, while the remaining pellets were stored at −80 C for microbiota composition analysis.
The microbiota composition was determined by sequencing of barcoded 16S ribosomal RNA (rRNA) gene amplicons using Illumina Hiseq2500 (2×150 bp). […]

2′-fucosyllactose [2′-FL]
effect on F. prausnitzii abundance in co-culture (F. prausnitzii [1]): not able to increase
F. prausnitzii abundance as a result of 2′-FL administration (F. prausnitzii [2]): decrease
effect on F. prausnitzii abundance in monocultures (F. prausnitzii [3]): does not affect
abundance of F. prausnitzii as compared to control medium without 2′-FL [4]: increase the abundance; also recorded: higher abundance
